Reference: article PMC5374710, “Discovery of the first dual GSK3β inhibitor/Nrf2 inducer. A new multitarget therapeutic strategy for Alzheimer’s disease” (Scientific Reports, 2017)
Like-named read-outs stand apart in the source and are kept apart here.

Tests used:
Nrf2 = assay: Nrf2-dependent luciferase reporter assay in AREc32 cell line; type: cell-based; details: for EC50: AREc32 cells, read-out: CD (concentration required to double the luciferase reporter activity)
Procedure: Thereafter, we tested the ability of the compounds to induce the Nrf2 transcription factor. We used an Nrf2-dependent luciferase reporter assay in the AREc32 cell line[45]. Cells were cultured for 24 h and then treated with increasing concentrations of compounds 5a–t (0.3, 3, 10 and 30 μM), including the known inducer sulforaphane, containing an isothiocyanate motive as positive control.
AREc32 cells were plated in 96-well white plates (2 × 10^4 cells/well). After 24 h, cells were incubated with increasing concentrations of each compound in duplicate for 24 h. AREc32 cells express constitutively the plasmid pGL-8xARE that implements 8 copies of the EpRE sequences followed by luciferase reporter gen. Therefore, Nrf2 induction is related to the activation of EpRE sequences, expressing luciferase at the same extent as EpRE sequences are activated. The Luciferase Assay System (Promega E1500), was used according to provider protocol and luminescence was quantified in an Orion II microplate luminometer (Berthold, Germany). Fold induction of luciferase activity was normalized to basal conditions. Data are expressed as CD values, expressing the concentration required to double the luciferase activity. CD values are calculated from dose-response curves generated from fold induction of control conditions vs. inducer concentration and fitted by non-linear regression and data interpolated to 2-fold induction concentration.
Breast cancer cells stably transfected to express luciferase after EpRE sequences MCF-7/AREc32 named AREc32, were kindly provided by Dr. C. Roland Wolf (University of Dundee, UK).^14 AREc32 cells were maintained in DMEM with high glucose-glutamax, supplemented with 10 % FBS, 1 % penicillin-streptomycin (10,000 units), and geneticin (0.8 mg/ml G418) at 37 °C and in a 5 % CO2- air atmosphere.^14
AREc32 cells are constitutively transfected with the pGL-8xARE luciferase reporter gene, inserted after EpRE sequences. Thus, Nrf2 translocation to the nucleus induces the activation of the EpRE sequences, expressing their target phase II antioxidant genes, and expressing luciferase at the same extent.^15 AREc32 cells were plated in 96-well white plates (2X10^4 cells/well). After 24 h, cells were incubated with increasing concentrations of each compound in duplicate for 24 h (dissolved in DMSO to give a final 0.1 % vol/vol concentration of vehicle). Each plate included non-treated cells as basal luciferase expression and tBHQ (10 µM) as positive control. TBHQ is a potent Nrf2 inducer used as control in the development of the AREc32 cells.^14 Transfected clones are selected using G418. AREc32 cells express constitutively the plasmid pGL-8xARE that implements 8 copies of the EpRE sequences followed by a luciferase reporter gene. Therefore, the induction of Nrf2 is proportional to the activation of EpRE sequences, expressing luciferase at the same extent as EpRE sequences are activated. Luciferase production is then assessed by a bioluminescence assay. The Luciferase Assay System (Promega E1500), was used according to the Promega protocol and luminescence was quantified in an Orion II microplate luminometer (Berthold, Germany). Relative Light Units (RLU) were recorded for the contents of each well. Fold induction of luciferase activity was calculated by dividing the RLU obtained for the tests wells for each treatment by the average RLU obtained for the basal conditions. Data are expressed as CD values, expressing the concentration required to double the basal luciferase activity, used to quantify the Nrf2 induction potency. CD values are calculated from dose-response curves generated from fold induction of control conditions vs. inducer concentration and fitted by non-linear regression and data interpolated to value the 2-fold induction concentration, using GraphPad Prism software (San Diego, CA, USA).

SH-SY5Y cells [1] = assay: Neuroprotection against rotenone/oligomycin A (R/O), MTT; type: cell-based; details: 1 μM, 24 h pre-incubation, 24 h co-incubation with rotenone/oligomycin A 30/10 μM
Procedure: Figure 5 Compounds 5a–t exert neuroprotection in in vitro models of AD. […] Then, treatments were removed and cells were co-incubated with each treatment and okadaic acid for 18 h or R/O for 24 h. Cell viability was measured by the MTT reduction assay. Values are expressed as mean ± SEM of five independent experiments in triplicate. ***p < 0.001; **p < 0.01 respect to toxic stimuli treated cells, considered as 0% of protection.
As stated in the Introduction, oxidative stress is considered one of the main causes of neuronal death in AD. Therefore, we were interested in evaluating the potential antioxidant activity of compounds 5a–t in a model of oxidative stress and energy depletion, which in turn increase cell death. For this purpose, we selected the combination of rotenone (30 μM) and oligomycin A (10 μM) (R/O) to induce neurotoxicity as a model system[23][40] to evaluate the potential neuroprotective activity of the compounds. Melatonin, a well-known antioxidant natural compound, was included as a positive control.
(§1) A pre- and co-incubation protocol was followed. Cells were pre-incubated with the corresponding compound at 1 μM in neuroblastoma cells culture medium. After 24 h, medium was removed and replaced with 1% FBS neuroblastoma culture media containing the corresponding compound (1 μM) and the toxic stimuli, the mixture of rotenone and oligomycin A (30 μM/10 μM respectively) or okadaic acid at 20 nM. Cells were co-incubated for further 24 h with the rotenone and oligomycin A solution or 18 h with the okadaic acid solution. Control cells were incubated with the same amount of DMSO without any drug. After the co-incubation period, cell viability was assessed by the MTT-reduction method.
as §1, with “A pre” for “A pre-”, “1 µM” for “1 μM”, “compound at 1 µM” for “compound (1 μM)”, “stimuli, namely a” for “stimuli, the”, “(30 µM / 10 µM” for “(30 μM/10 μM”, “drug. […]” for “drug.”
The percentage of protection was calculated as follows: the percentage of cell survival obtained with the toxic stimuli-treated cells subtracted to 100 was normalized to 100 % of cell death. The percentage of protection was obtained by subtracting the percentage of cell death in presence of the tested compound to 100%.

SH-SY5Y cells [2] = assay: Neuroprotection against okadaic acid (tau hyperphosphorylation), MTT; type: cell-based; details: 1 μM, 24 h pre-incubation, 18 h co-incubation with OA 20 nM
[3] = molecular target: T1, Nrf2-Keap1 protein-protein interaction (Homo sapiens, UniProt Q14145); assay: Fluorescence polarization assay of Nrf2-Keap1 interaction; type: binding; details: ligand concentration 10 µM; read-out: FP % Inhibition (± SEM)
T1 construct: a solution of the Keap1 Kelch domain (200 nM)
T1 sequence (Q14145 321-609 limits assumed): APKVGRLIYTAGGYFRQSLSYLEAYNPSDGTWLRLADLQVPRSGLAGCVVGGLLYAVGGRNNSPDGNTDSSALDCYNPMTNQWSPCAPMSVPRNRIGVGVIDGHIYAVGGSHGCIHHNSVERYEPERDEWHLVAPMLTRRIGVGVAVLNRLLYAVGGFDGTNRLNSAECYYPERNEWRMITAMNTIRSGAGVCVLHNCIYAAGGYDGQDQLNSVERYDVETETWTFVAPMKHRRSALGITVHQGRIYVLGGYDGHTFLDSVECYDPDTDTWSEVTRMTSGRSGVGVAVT
Procedure: Data are presented the means ± SEM of two experiments performed in triplicate.
The FP assay was carried out as previously described.^16,17 Inhibitors (10 µM) were plated onto untreated Corning® black 96 well plates containing a solution of the Keap1 Kelch domain (200 nM) and the fluorescent peptide FITC-β-DEETGEF-OH (1 nM) in Dulbecco’s Phosphate Buffered Saline (DPBS) at pH 7.4 (11% final DMSO concentration, 100 µL final volume). Following a 30 min incubation under slow agitation and away from light at room temperature, the plates were transferred to a PHERAstar microplate reader (BMG Labtech, Ortenberg, Germany) and the fluorescence polarisation was recorded. All measurements were recorded in triplicate.

Keap1 Kelch domain = molecular target: T2, Keap1 Kelch domain (Homo sapiens, UniProt Q14145); assay: Differential scanning fluorimetry assay; type: binding; details: ligand concentration 10 µM
T2 construct: A solution of the Keap1 Kelch domain protein (5 µM)
T2 sequence (Q14145 321-609 limits assumed): as above
Procedure: A solution of the Keap1 Kelch domain protein (5 µM) and detection dye SYPRO® orange (5X) in DPBS at pH 7.4 was added onto a qPCR plate containing the compound inhibitor (10 µM, 10% final DMSO concentration, 40 µL final volume). The plate was sealed using an optical foil seal and covered with aluminum foil to protect the dye from light. The plate was then transferred to a plate centrifuge and spun down briefly (200 G, 1 min, room temperature) to remove any bubbles and collect the solution at the bottom of the wells. Following a 30 min incubation at room temperature, the plate was placed into a 7500 Real time PCR machine and the fluorescence intensity at an excitation of 465 nm and emission of 580 nm was recorded during a temperature scan from 25 °C to 95 °C with a temperature ramping rate of 1 °C/min. All measurements were run in triplicate. Life Technologies software was used to set up the run on 7500 Software v.2.0.0 and the initial data processing was carried out on Protein thermal shift solution software. The raw data were exported to MS Excel and analysis was performed using a custom script provided by the Structural Genomics Consortium Oxford.^18 The temperature range over which the protein unfolding occurred was selected and the maximum and minimum (at temperatures below the maximum intensity) fluorescence intensities within this range were determined. The processed data were fitted to the Boltzmann equation by non-linear regression using the Origin Pro software.

Structure (SMILES) | EC50 (Nrf2; Arec32, 24 h) | further results
Cc1[nH]nc2c1C(c1cccnc1)C(C#N)=C(N)O2 (centres unmarked) [Compound 5s, 6-Amino-3-methyl-4-(pyridin-3-yl)-2,4-dihydropyrano[2,3-c]pyrazole-5-carbonitrile] | 8.91 ± 2.2 µM | Percentage of protection against R/O toxicity (SH-SY5Y cells [1]): 57.9%
Cc1n[nH]c2c1C(c1ccc(Cl)cc1)C(C#N)=C(N)O2 (centres unmarked) [Compound 5k, 6-Amino-4-(4-chlorophenyl)-3-methyl-2,4-dihydropyrano[2,3-c]pyrazole-5-carbonitrile] | 8.31 ± 1.5 µM | 
Cc1cccc(C2C(C#N)=C(N)Oc3n[nH]c(C)c32)c1 (centres unmarked) [Compound 5f, 6-Amino-3-methyl-4-(3-methylphenyl)-2,4-dihydropyrano[2,3-c]pyrazole-5-carbonitrile] | 14.1 ± 2.1 µM | Percentage of protection against okadaic acid toxicity (SH-SY5Y cells [2]): over 50%
Cc1n[nH]c2c1C(c1ccccc1Cl)C(C#N)=C(N)O2 (centres unmarked) [Compound 5i, 6-Amino-4-(2-chlorophenyl)-3-methyl-2,4-dihydropyrano[2,3-c]pyrazole-5-carbonitrile] | 23.5 ± 3.2 µM | 
COc1ccccc1C1C(C#N)=C(N)Oc2n[nH]c(C)c21 (centres unmarked) [Compound 5b, 6-Amino-4-(2-methoxyphenyl)-3-methyl-2,4-dihydropyrano[2,3-c]pyrazole-5-carbonitrile] | > 30 µM | Percentage of protection against R/O toxicity (SH-SY5Y cells [1]): 39.1%
Cc1ccc(C2C(C#N)=C(N)Oc3[nH]nc(C)c32)cc1 (centres unmarked) [Compound 5g, 6-Amino-3-methyl-4-(4-methylphenyl)-2,4-dihydropyrano[2,3-c]pyrazole-5-carbonitrile] | 25.4 ± 2.5 µM | 
Cc1[nH]nc2c1C(c1cccc(Cl)c1)C(C#N)=C(N)O2 (centres unmarked) [Compound 5j, 6-Amino-4-(3-chlorophenyl)-3-methyl-2,4-dihydropyrano[2,3-c]pyrazole-5-carbonitrile] | 5.38 ± 0.5 µM | 
Cc1[nH]nc2c1C(c1ccccc1)C(C#N)=C(N)O2 (centres unmarked) [Compound 5a, 6-Amino-3-methyl-4-phenyl-2,4-dihydropyrano[2,3-c]pyrazole-5-carbonitrile] | 20.5 ± 3.4 µM | Percentage of protection against okadaic acid toxicity (SH-SY5Y cells [2]): 27.7%
Cc1[nH]nc2c1C(c1ccc(Br)cc1)C(C#N)=C(N)O2 (centres unmarked) [Compound 5m, 6-Amino-4-(4-bromophenyl)-3-methyl-2,4-dihydropyrano[2,3-c]pyrazole-5-carbonitrile] | < 10 µM | Percentage of protection against okadaic acid toxicity (SH-SY5Y cells [2]): over 50%; Luciferase activity increase alone versus in presence of Li (10 mM) (Nrf2; 3 μM to 30 μM, 24 h): to the same extent and without statistically significant differences; EC50 (Nrf2; 24 h): 9.37 ± 1.4 µM; inhibition at 10 µM [3]: < 0%; ΔTm at 10 µM (Keap1 Kelch domain): -0.14 ± 0.35 °C
COc1cccc(C2C(C#N)=C(N)Oc3n[nH]c(C)c32)c1 (centres unmarked) [Compound 5c, 6-Amino-4-(3-methoxyphenyl)-3-methyl-2,4-dihydropyrano[2,3-c]pyrazole-5-carbonitrile] | 11.3 ± 1.3 µM | inhibition at 10 µM [3]: < 0%; ΔTm at 10 µM (Keap1 Kelch domain): -0.43 ± 0.49 °C; Percentage of protection against R/O toxicity (SH-SY5Y cells [1]): 55.3%
Cc1ccccc1C1C(C#N)=C(N)Oc2[nH]nc(C)c21 (centres unmarked) [Compound 5e, 6-Amino-3-methyl-4-(2-methylphenyl)-2,4-dihydropyrano[2,3-c]pyrazole-5-carbonitrile] | > 30 µM | 
Cc1n[nH]c2c1C(c1ccco1)C(C#N)=C(N)O2 (centres unmarked) [Compound 5q, 6-Amino-4-(furan-2-yl)-3-methyl-2,4-dihydropyrano[2,3-c]pyrazole-5-carbonitrile] | 25.2 ± 2.4 µM | 
Cc1n[nH]c2c1C(c1ccc(F)cc1)C(C#N)=C(N)O2 (centres unmarked) [Compound 5h, 6-Amino-4-(4-fluorophenyl)-3-methyl-2,4-dihydropyrano[2,3-c]pyrazole-5-carbonitrile] | 14.6 ± 4 µM | 
COc1ccc(C2C(C#N)=C(N)Oc3n[nH]c(C)c32)cc1 (centres unmarked) [Compound 5d, 6-Amino-4-(4-methoxyphenyl)-3-methyl-2,4-dihydropyrano[2,3-c]pyrazole-5-carbonitrile] | 25.3 ± 2.4 µM | Percentage of protection against R/O toxicity (SH-SY5Y cells [1]): 38.8%
Cc1n[nH]c2c1C(c1ccccc1Br)C(C#N)=C(N)O2 (centres unmarked) [Compound 5l, 6-Amino-4-(2-bromophenyl)-3-methyl-2,4-dihydropyrano[2,3-c]pyrazole-5-carbonitrile] | > 30 µM | Percentage of protection against R/O toxicity (SH-SY5Y cells [1]): 24.1%
Cc1[nH]nc2c1C(c1ccccc1[N+](=O)[O-])C(C#N)=C(N)O2 (centres unmarked) [Compound 5n, 6-Amino-3-methyl-4-(2-nitrophenyl)-2,4-dihydropyrano[2,3-c]pyrazole-5-carbonitrile] | 11.3 ± 5.5 µM | Percentage of protection against okadaic acid toxicity (SH-SY5Y cells [2]): 34.7%
Cc1[nH]nc2c1C(c1cccc([N+](=O)[O-])c1)C(C#N)=C(N)O2 (centres unmarked) [Compound 5o, 6-Amino-3-methyl-4-(3-nitrophenyl)-2,4-dihydropyrano[2,3-c]pyrazole-5-carbonitrile] | 18.9 ± 2.9 µM | Percentage of protection against okadaic acid toxicity (SH-SY5Y cells [2]): 48%
Cc1n[nH]c2c1C(c1cccs1)C(C#N)=C(N)O2 (centres unmarked) [Compound 5r, 6-Amino-3-methyl-4-(thiophen-2-yl)-2,4-dihydropyrano[2,3-c]pyrazole-5-carbonitrile] | 17.6 ± 8.4 µM | 
Cc1[nH]nc2c1C(c1ccc([N+](=O)[O-])cc1)C(C#N)=C(N)O2 (centres unmarked) [Compound 5p, 6-Amino-3-methyl-4-(4-nitrophenyl)-2,4-dihydropyrano[2,3-c]pyrazole-5-carbonitrile] | 15 ± 4.3 µM | 
